From US7960567B2, “Compounds and methods useful for treating asthma and allergic inflammation” (Amgen Inc., priority 2007, dated 2011) come the findings set out here.

The target in experiment [1] is T1, human CRTH2 (Homo sapiens, UniProt Q9Y5Y4).
T1 construct: Full-length human CRTH2 cDNA was generated by polymerase chain reaction (PCR); expressed in transfected cells
T1 sequence (Q9Y5Y4 1-395): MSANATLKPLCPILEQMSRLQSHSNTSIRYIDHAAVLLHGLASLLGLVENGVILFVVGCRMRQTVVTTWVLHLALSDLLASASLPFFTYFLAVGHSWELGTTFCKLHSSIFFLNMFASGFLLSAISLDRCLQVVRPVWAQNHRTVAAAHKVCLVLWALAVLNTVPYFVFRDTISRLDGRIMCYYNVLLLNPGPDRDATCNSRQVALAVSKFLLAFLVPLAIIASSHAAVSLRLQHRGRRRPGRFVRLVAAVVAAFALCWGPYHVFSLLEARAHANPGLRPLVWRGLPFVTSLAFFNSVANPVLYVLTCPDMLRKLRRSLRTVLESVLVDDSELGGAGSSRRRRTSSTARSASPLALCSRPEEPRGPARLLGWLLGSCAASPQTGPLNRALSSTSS
The experiment is described as follows: Human CRTH2 binding assay (3H-PGD2 binding, 293(124) cells). Particulars: 1 nM 3H-PGD2 and 30 nM unlabeled PGD2, read-out: IC50 observed in CRTH2 binding assay. Here is the method: Full-length human CRTH2 cDNA was generated by polymerase chain reaction (PCR) using human genomic DNA as template and subsequently cloned into pcDNA3.1(+) (Invitrogen Corp., Carlsbad, Calif.), generating a CRTH2 expression plasmid pHLT124. The plasmid was transfected into 293 cells, […], using LIPOFECTAMINE™ reagents (Invitrogen Corp., Carlsbad, Calif.). G418 ([…]) was added to the culture 48 h after transfection and cells were maintained under selection for 3 weeks to ensure that all surviving cells stably expressed CRTH2. These cells are labeled as 293(124) hereafter.
^3H-PGD2 binding assay was performed using 293(124) cells. In brief, cells were washed and suspended in RPMI containing 0.5% BSA and 20 mM HEPES. Each assay contained 25,000 cells, appropriate amount of test compound when necessary and a mixture of 1 nM ^3H-PGD2 (Amersham Biosciences, Piscataway, N.J.) and 30 nM of unlabeled PGD2 (Cayman Chemical Co., Ann Arbor, Mich.) in […] final volume. The cell mixture was incubated at room temperature for 2.5 h with shaking and the cells were separated from free ^3H-PGD2 and transferred onto a filter plate using a cell harvester. Radioactivity bound to the cells was measured on a liquid scintillation counter. Nonspecific binding was determined in the presence of […] of unlabeled PGD2.

Experiment [2] has as its target T2, human DP (Homo sapiens, UniProt Q13258).
T2 construct: Full-length human DP cDNA was generated by PCR using human genomic DNA as a template; expressed in transfected cells
T2 sequence (Q13258 1-359): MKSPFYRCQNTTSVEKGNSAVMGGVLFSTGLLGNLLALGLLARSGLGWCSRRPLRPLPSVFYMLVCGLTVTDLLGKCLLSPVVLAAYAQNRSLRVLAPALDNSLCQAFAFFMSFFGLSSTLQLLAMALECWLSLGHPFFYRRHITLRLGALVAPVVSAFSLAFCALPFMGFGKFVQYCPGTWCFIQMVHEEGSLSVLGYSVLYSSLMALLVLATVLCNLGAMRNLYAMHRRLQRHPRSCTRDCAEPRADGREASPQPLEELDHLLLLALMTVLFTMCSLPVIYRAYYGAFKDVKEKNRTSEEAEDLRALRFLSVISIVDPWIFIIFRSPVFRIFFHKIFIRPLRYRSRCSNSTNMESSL
The experiment is described as follows: Human DP binding assay (3H-PGD2 binding, 293(128) cells). The conditions noted are these: 2 nM 3H-PGD2 and 0 nM unlabeled PGD2, read-out: IC50 observed in DP binding assay. On the procedure: Full-length human DP cDNA was generated by PCR using human genomic DNA as a template and subsequently cloned into pcDNA3.1(+) to generate a DP expression plasmid. The plasmid was transfected into 293 cells to generate a line of cells that have stable overexpression of human DP, termed 293(128) cells, essentially as described above for CRTH2. ^3H-PGD2 binding assays were performed using 293(128) cells as described above for CRTH2 except that each assay contained 350,000 cells, and 2 nM ^3H-PGD2 and 0 nM unlabeled PGD2.

For orientation: IC50 means the point on the concentration scale where inhibition reaches its midpoint. Take `COc1cc(CC(=O)O)ccc1Oc1ccc2[nH]c(C)cc2c1NS(=O)(=O)c1ccc(Cl)cc1Cl` [Example 1, 2-(4-(4-(2,4-Dichlorophenylsulfonamido)-2-methyl-1H-indol-5-yloxy)-3-methoxyphenyl)acetic acid]: the figures for the IC50 in experiment [1] and in experiment [2] were 10 to 100 nM and below 10 nM, respectively.
The corresponding values for `O=C(O)Cc1ccc(Oc2cc3c(cc2NS(=O)(=O)c2ccc(Cl)cc2)C(=O)NC3=O)c(Cl)c1` [Example 30, 2-(3-Chloro-4-(6-(4-chlorophenylsulfonamido)-1,3-dioxoisoindolin-5-yloxy)phenyl)acetic acid] are 100 to 1000 nM and 1000 to 15000 nM.
